Reference: patent publication US7858072B2, “Stilbene derivatives and their use for binding and imaging amyloid plaques” (The Trustees of the University of Pennsylvania, priority 2004, dated 2010)
Like-named read-outs stand apart in the source and are kept apart here.

Tests used:
AD cortical homogenates = conditions: Kung et al. 2004, cited from earlier work
Aβ plaques = conditions: cited from earlier work
[1] = Partition coefficient (1-octanol/buffer); type: physicochemical; conditions: 1-octanol / 0.1 M phosphate buffer, pH 7.4
Procedure: Partition coefficients were measured by mixing the [^18F]tracer with 3 g each of 1-octanol and buffer (0.1 M phosphate, pH 7.4) in a test tube. The test tube was vortexed for 3 min at room temperature, followed by centrifugation for 5 min. Two weighed samples (0.5 g each) from the 1-octanol and buffer layers were counted in a well counter. The partition coefficient was determined by calculating the ratio of cpm/g of 1-octanol to that of buffer. Samples from the 1-octanol layer were re-partitioned until consistent partitions of coefficient values were obtained (usually the 3rd or 4th partition). The measurement was done in triplicate and repeated three times.

[2] = Organ distribution in normal mice after iv injection of [18F]tracers; type: in vivo; conditions: ICR mice, [18F]tracer in 0.1% BSA
Procedure: The organs of interest were removed and weighed, and the radioactivity was assayed for radioactivity content with an automatic gamma counter. The percentage dose per organ was calculated by a comparison of the tissue counts to suitably diluted aliquots of the injected material. Total activities of blood were calculated under the assumption that they were 7% of the total body weight. The % dose/g of samples was calculated by comparing the sample counts with the count of the diluted initial dose.

[3] = molecular target: Aβ plaques (postmortem AD brain homogenates) (Homo sapiens, UniProt P05067); assay: Binding assay: inhibition of [125I]IMPY binding in postmortem AD brain homogenates
Aβ plaques (postmortem AD brain homogenates), sequence (P05067 672-711 limits assumed): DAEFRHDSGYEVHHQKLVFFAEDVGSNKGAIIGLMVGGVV
Procedure: Postmortem brain tissues were obtained from AD patients at autopsy, and neuropathological diagnosis was confirmed by current criteria (NIA-Reagan Institute Consensus Group, 1997). Homogenates were then prepared from dissected gray matters from AD patients in phosphate buffered saline (PBS, pH 7.4) at the concentration of approximately 100 mg wet tissue/ml (motor-driven glass homogenizer with setting of 6 for 30 sec).
Binding assays were carried out in 12×75 mm borosilicate glass tubes. […] The mixture was incubated at 37° C. for 2 hr and the bound and the free radioactivity were separated by vacuum filtration through Whatman GF/B filters using a Brandel M-24R cell harvester followed by 2×3 ml washes of PBS at room temperature. Filters containing the bound ^125I ligand were assayed for radioactivity content in a gamma counter (Packard 5000) with 70% counting efficiency. […] The results of inhibition experiments were subjected to nonlinear regression analysis using EBDA by which Ki values were calculated.

fibrillar Aβ aggregates = fibrillar Aβ aggregates (Homo sapiens, UniProt P05067); conditions: Mathis et al. 1997; read-out: inhibition constants (Ki) for binding to fibrillar Aβ aggregates; cited from earlier work
fibrillar Aβ aggregates, sequence (P05067 672-711 limits assumed): as above

Compound: CNc1ccc(/C=C/c2ccc(O)cc2)cc1 [[^3H]SB-13]
- Kd (AD cortical homogenates): 2.4 ± 0.2 nM

Compound: [11CH3]Nc1ccc(/C=C/c2ccc(O)cc2)cc1 [[^11C]SB-13]
- accumulation in the frontal cortex (Aβ plaques; mild to moderate AD patients, not in age-matched control subjects): high accumulation

Compound: CNc1ccc(C=Cc2ccc(OCCOCCOCCOCC[18F])cc2)cc1 [[^18F]12c]
- logp value (lipophilicity) [1]: 2.05

Compound: CNc1ccc(C=Cc2ccc(OCCOCCOCCOCCF)cc2)cc1 [Compound 12c, (4-{2-[4-(2-{2-[2-(2-Fluoro-ethoxy)-ethoxy]-ethoxy}-ethoxy)-phenyl]-vinyl}-phenyl)-methyl-amine]
- Blood ([2]; 2 min): 3.22 ± 0.20 % dose/g
- Bone ([2]; 2 min): 2.31 ± 0.12 % dose/g
- Brain ([2]; 2 min): 6.59 ± 0.19 % dose/g
- Blood ([2]; 30 min): 1.88 ± 0.08 % dose/g
- Bone ([2]; 30 min): 1.00 ± 0.02 % dose/g
- Brain ([2]; 30 min): 1.27 ± 0.03 % dose/g
- Blood ([2]; 1 hr): 1.81 ± 0.48 % dose/g
- Bone ([2]; 1 hr): 0.98 ± 0.27 % dose/g
- Brain ([2]; 1 hr): 1.20 ± 0.10 % dose/g
- Blood ([2]; 2 hr): 1.60 ± 0.12 % dose/g
- Bone ([2]; 2 hr): 1.50 ± 0.05 % dose/g
- Brain ([2]; 2 hr): 1.21 ± 0.06 % dose/g

Compound: CNc1ccc(C=Cc2ccc(OCCOCCF)cc2)cc1 [Compound 12a, [4-(2-{4-[2-(2-Fluoro-ethoxy)-ethoxy]-phenyl}-vinyl)-phenyl]-methyl-amine]
- Ki ([3]; read-out: Ki ± SEM, X = F): 2.9 ± 0.2 nM
- Blood ([2]; 2 min): 2.64 ± 0.55 % dose/g
- Bone ([2]; 2 min): 1.89 ± 0.25 % dose/g
- Brain ([2]; 2 min): 8.14 ± 2.03 % dose/g
- Blood ([2]; 30 min): 2.42 ± 0.27 % dose/g
- Bone ([2]; 30 min): 1.40 ± 0.11 % dose/g
- Brain ([2]; 30 min): 3.00 ± 0.16 % dose/g
- Blood ([2]; 1 hr): 2.04 ± 0.16 % dose/g
- Bone ([2]; 1 hr): 1.71 ± 0.23 % dose/g
- Brain ([2]; 1 hr): 2.60 ± 0.22 % dose/g
- Blood ([2]; 2 hr): 2.77 ± 0.63 % dose/g
- Bone ([2]; 2 hr): 2.88 ± 0.07 % dose/g
- Brain ([2]; 2 hr): 2.14 ± 0.06 % dose/g

Compound: CNc1ccc(C=Cc2ccc(OCCOCC[18F])cc2)cc1 [[^18F]12a, [^18F][4-(2-{4-[2-(2-Fluoro-ethoxy)-ethoxy]-phenyl}-vinyl)-phenyl]-methyl-amine]
- logp value (lipophilicity) [1]: 2.52

Compound: CNc1ccc(C=Cc2ccc(OCCOCCOCCOCCOCCF)cc2)cc1 [Compound 12d, [4-(2-{4-[2-(2-{2-[2-(2-Fluoro-ethoxy)-ethoxy]-ethoxy}-ethoxy)-ethoxy]-phenyl}-vinyl)-phenyl]-methyl-amine]
- Ki ([3]; read-out: Ki ± SEM, X = F): 6 ± 0.8 nM
- Blood ([2]; 2 min): 4.99 ± 0.38 % dose/g
- Bone ([2]; 2 min): 2.24 ± 0.21 % dose/g
- Brain ([2]; 2 min): 7.30 ± 1.05 % dose/g
- Blood ([2]; 30 min): 4.66 ± 0.06 % dose/g
- Bone ([2]; 30 min): 2.29 ± 0.21 % dose/g
- Brain ([2]; 30 min): 2.43 ± 0.03 % dose/g
- Blood ([2]; 1 hr): 2.89 ± 0.11 % dose/g
- Bone ([2]; 1 hr): 1.66 ± 0.01 % dose/g
- Brain ([2]; 1 hr): 1.77 ± 0.11 % dose/g
- Blood ([2]; 2 hr): 2.59 ± 0.18 % dose/g
- Bone ([2]; 2 hr): 2.35 ± 0.27 % dose/g
- Brain ([2]; 2 hr): 1.62 ± 0.03 % dose/g

Compound: [11CH3]Nc1ccc(-c2nc3ccc(O)cc3s2)cc1 [[^11C]6-OH-BTA-1]
- retention in the cortex (Aβ plaques; patients with diagnosed mild AD): marked retention

Compound: CNc1ccc(C=Cc2ccc(OCCOCCOCCOCCOCCO)cc2)cc1 [Compound 3d, 2-(2-{2-[2-(2-{4-[2-(4-Methylamino-phenyl)-vinyl]-phenoxy}-ethoxy)-ethoxy]-ethoxy}-ethoxy)-ethanol]
- Ki ([3]; read-out: Ki ± SEM, X = OH): 5.2 ± 0.2 nM

Compound: CNc1ccc(C=Cc2ccc(OCCOCCO)cc2)cc1 [Compound 3a, 2-(2-{4-[2-(4-Methylamino-phenyl)-vinyl]-phenoxy}-ethoxy)-ethanol]
- Ki ([3]; read-out: Ki ± SEM, X = OH): 5.2 ± 0.4 nM

Compound: CNc1ccc(C=Cc2ccc(OCCOCCOCCOCCOCC[18F])cc2)cc1 [[^18F]12d]
- logp value (lipophilicity) [1]: 2.28

Compound: CNc1ccc(C=Cc2ccc(OCCOCCOCCOCCO)cc2)cc1 [Compound 3c, 2-{2-[2-(2-{4-[2-(4-Methylamino-phenyl)-vinyl]-phenoxy}-ethoxy)-ethoxy]-ethoxy}-ethanol]
- Ki ([3]; read-out: Ki ± SEM, X = OH): 4.6 ± 0.2 nM

Compound: CNc1ccc(C=Cc2ccc(OCCOCCOCCO)cc2)cc1 [Compound 3b, 2-[-2-(2-{4-[2-(4-Methylamino-phenyl)-vinyl]-phenoxy}-ethoxy)-ethoxy]-ethanol]
- Ki ([3]; read-out: Ki ± SEM, X = OH): 2.8 ± 0.2 nM

Compound: CNc1ccc(C=Cc2ccc(OCCOCCOCC[18F])cc2)cc1 [[^18F]12b, [^18F]{4-[2-(4-{2-[2-(2-Fluoro-ethoxy)-ethoxy]-ethoxy}-phenyl)-vinyl]-phenyl}-methyl-amine]
- Bone ([2]; 2 hr): 2.74 % dose/g
- logp value (lipophilicity) [1]: 2.41

Compound: [3H]N(c1ccc(/C=C/c2ccc(O)cc2)cc1)C([3H])([3H])[3H] [[^3H]SB-13]
- binding capacity (AD cortical homogenates; AD cortical homogenates): 14-45 pmol/mg protein

Compound: O=C(O)c1cc(/N=N/c2ccc(-c3ccc(/N=N/c4ccc(O)c(C(=O)O)c4)cc3)cc2)ccc1O [CG, chrysamine-G]
- Ki (fibrillar Aβ aggregates): 370 nM

Compound: CC(=C(C#N)C#N)c1ccc2cc(N(C)CCF)ccc2c1 [[^18F]FDDNP]
- relative residence time of the brain region of interest versus the pons (Aβ plaques; AD patients versus comparison subjects, PET): significantly higher in AD patients
